Here are results for 17 compounds from patent publication US11225477B2, “Inhibitors of influenza virus replication, application methods and uses thereof” (SUNSHINE LAKE PHARMA CO., LTD., priority 2015, dated 2022).

The structures appear in SMILES notation.

The conditions of series [1]: SD, rat, in vivo, po, 5 mg/kg.
Experimental: (§1) The compounds disclosed herein were administered in form of a saline solution containing 5% DMSO, 5% Kolliphor HS 15 and 90% Saline. […] Plasma samples were collected and stored at −20° C. or −70° C. until LC/MS/MS analysis.
A further series can be described thus: in vivo. The following applies: SD, rat.
The subject of the next series is virus H1N1 A/Weiss/43. Nature of the series: microbe, parasite or virus in culture. The class given is cell-based. The following applies: Influenza A virus, 120 h; MDCK cells, H1N1 A/Weiss/43, Scheme 2: 8 concentrations 50 nM to 0.023 nM, 5 days, CCK-8.

Experimental for in vivo: as §1

Consider `Cc1nc2[nH]cc(-c3nc(NC4C5CCC(CC5)C4C(=O)O)cc(-c4ccccc4)n3)c2cc1F` (racemic) [Example 80, (+/−)-trans-3-((2-(5-fluoro-6-methyl-1H-pyrrolo[2,3-b]pyridin-3-yl)-6-phenylpyrimidin-4-yl)amino)bicyclo[2.2.2]octane-2-carboxylic Acid], for which the F in series [1] is given as 62.5%. Moreover, in the series “in vivo” (iv, 1 mg/kg), the AUC(0-inf) was found to be 3380 ng·h/mL, the AUC(0-t) is 3320 ng·h/mL, the concentration peaked (Cmax) at 5630 ng/mL and the time of peak concentration (Tmax) stood at 0.083 h. In addition, in “in vivo” (iv, 1 mg/kg), the Vd is 1.5 L/kg, the clearance is 4.94 mL/min/kg and the half-life was 1.53 h. In “in vivo” (po, 5 mg/kg), the AUC(0-inf) worked out at 10600 ng·h/mL, the AUC(0-t) amounted to 10100 ng·h/mL, the Cmax was 3130 ng/mL and the Tmax was 0.833 h. The compound further showed a half-life in “in vivo” (po, 5 mg/kg) of 1.48 h.
In series [1], `O=C(O)C1C2CCC(CC2)C1Nc1cc(C2CC2)nc(-c2c[nH]c3ncc(F)cc23)n1` (racemic) [Example 68, (+/−)-trans-3-((6-cyclopropyl-2-(5-fluoro-1H-pyrrolo[2,3-b]pyridin-3-yl)pyrimidin-4-yl)amino)bicyclo[2.2.2]octane-2-carboxylic Acid] gave an F of 60.1%. In addition, in “in vivo” (iv, 1 mg/kg), the AUC(0-inf) was 2880 ng·h/mL, the AUC(0-t) was determined as 2760 ng·h/mL, the Cmax was determined as 3750 ng/mL and the Tmax is 0.083 h. In “in vivo” (iv, 1 mg/kg), this compound showed a Vd of 0.551 L/kg, a clearance of 5.86 mL/min/kg and a half-life of 2.01 h. In the series “in vivo” (po, 5 mg/kg), the AUC(0-inf) was 8330 ng·h/mL, the AUC(0-t) came to 8310 ng·h/mL, the peak level (Cmax) was 2960 ng/mL and the Tmax stood at 0.417 h. Further, in the series “in vivo” (po, 5 mg/kg), the half-life was 3.24 h.
On to `CC(C)n1ccc2c(NC3C4CCC(CC4)C3C(=O)O)nc(-c3c[nH]c4ncc(F)cc34)nc21` (racemic) [Example 25, (+/−)-trans-3-((2-(5-fluoro-1H-pyrrolo[2,3-b]pyridin-3-yl)-7-isopropyl-7H-pyrrolo[2,3-d]pyrimidin-4-yl)amino)bicyclo[2.2.2]octane-2-carboxylic Acid], for which the EC50 in the series on virus H1N1 A/Weiss/43 came to 0.26 nM.
`O=C(O)C1C2CCC(CC2)C1Nc1cc(-c2cccc3c2oc2ccccc23)nc(-c2c[nH]c3ncc(F)cc23)n1` (racemic) [Example 18, (+/−)-trans-3-((6-(dibenzo[b,d]furan-4-yl)-2-(5-fluoro-1H-pyrrolo[2,3-b]pyridin-3-yl)pyrimidin-4-yl)amino)bicyclo[2.2.2]octane-2-carboxylic Acid]: the F in series [1] is 43.1%. In addition, in “in vivo” (iv, 1 mg/kg), the AUC(0-inf) came to 3190 ng·h/mL, the AUC(0-t) came to 3130 ng·h/mL, the highest level (Cmax) was 4470 ng/mL and the Tmax came to 0.083 h. In the series “in vivo” (iv, 1 mg/kg), this compound had a Vd of 0.598 L/kg, a clearance of 5.3 mL/min/kg and a half-life of 4.37 h. In “in vivo” (po, 5 mg/kg), the AUC(0-inf) was determined as 6880 ng·h/mL, the AUC(0-t) came to 6840 ng·h/mL, the Cmax stood at 1690 ng/mL and the Tmax is 2 h. The compound also showed a half-life in the series “in vivo” (po, 5 mg/kg) of 3.71 h.
`O=C(O)C1C2CCC(CC2)C1Nc1nc(-c2c[nH]c3ncc(F)cc23)nc(-c2ccco2)c1F` (racemic) [Example 49, (+/−)-trans-3-((5-fluoro-2-(5-fluoro-1H-pyrrolo[2,3-b]pyridin-3-yl)-6-(furan-2-yl)pyrimidin-4-yl)amino)bicyclo[2.2.2]octane-2-carboxylic Acid]: in the series on virus H1N1 A/Weiss/43, the EC50 worked out at 0.068 nM.
Same read-out and setting: for `O=C(O)[C@H]1C2CCC(CC2)C1Nc1cc(-c2ccccc2)nc(-c2c[nH]c3ncc(F)cc23)n1` (stereo in doubt) [Example 4a, (2S,3S)-3-((2-(5-fluoro-1H-pyrrolo[2,3-b]pyridin-3-yl)-6-phenylpyrimidin-4-yl)amino)bicyclo[2.2.2]octane-2-carboxylic Acid] the value was 0.17 nM.
In the series with virus H1N1 A/Weiss/43, `O=C(O)C1C2CCC(CC2)C1Nc1nc(-c2c[nH]c3ncc(F)cc23)nc(-c2cc3ccccc3o2)c1F` (racemic) [Example 54, (+/−)-trans-3-((6-(benzofuran-2-yl)-5-fluoro-2-(5-fluoro-1H-pyrrolo[2,3-b]pyridin-3-yl)pyrimidin-4-yl)amino)bicyclo[2.2.2]octane-2-carboxylic Acid] displayed an EC50 of 0.261 nM.
In the series with virus H1N1 A/Weiss/43, `O=C(O)[C@H]1C2CCC(CC2)C1Nc1cc(-c2ccc([N+](=O)[O-])o2)nc(-c2c[nH]c3ncc(F)cc23)n1` (stereo in doubt) [Example 24a, (2S,3S)-3-((2-(5-fluoro-1H-pyrrolo[2,3-b]pyridin-3-yl)-6-(5-nitrofuran-2-yl)pyrimidin-4-yl)amino)bicyclo[2.2.2]octane-2-carboxylic Acid] returned an EC50 of 0.744 nM.
In the case of `CC(C)n1ccc2c(N[C@H]3C4CCC(CC4)[C@@H]3C(=O)O)nc(-c3c[nH]c4ncc(F)cc34)nc21` [Example 78, (2S,3S)-3-((2-(5-fluoro-1H-pyrrolo[2,3-b]pyridin-3-yl)-7-isopropyl-7H-pyrrolo [2,3-d]pyrimidin-4-yl)amino)bicyclo[2.2.2]octane-2-carboxylic Acid], the EC50 in the series on virus H1N1 A/Weiss/43 came to 0.236 nM.
In the series with virus H1N1 A/Weiss/43, `O=C(O)[C@H]1C2CCC(CC2)C1Nc1cc(-c2ccco2)nc(-c2c[nH]c3ncc(F)cc23)n1` (stereo in doubt) [Example 9a, (2S,3S)-3-((2-(5-fluoro-1H-pyrrolo[2,3-b]pyridin-3-yl)-6-(furan-2-yl)pyrimidin-4-yl)amino)bicyclo[2.2.2]octane-2-carboxylic Acid] had an EC50 of 0.039 nM.
In series [1], `O=C(O)C1C2CCC(CC2)C1Nc1nc(-c2c[nH]c3ncc(F)cc23)ncc1F` (racemic) [Control VX-787 (racemization), (+/−)-trans-3-((5-fluoro-2-(5-fluoro-1H-pyrrolo[2,3-b]pyridin-3-yl)pyrimidin-4-yl)amino)bicyclo[2.2.2]octane-2-carboxylic acid, reference compound] displayed an F of 58.4%.
With `O=C(O)C1C2CCC(CC2)C1Nc1nc(-c2c[nH]c3ncc(F)cc23)nc(C#Cc2ccccc2)c1F` (racemic) [Example 63, (+/−)-trans-3-((5-fluoro-2-(5-fluoro-1H-pyrrolo[2,3-b]pyridin-3-yl)-6-phenylethynyl)pyrimidin-4-yl)amino)bicyclo[2.2.2]octane-2-carboxylic Acid], in series [1], the F was 65%. Besides, in the series “in vivo” (iv, 1 mg/kg), the AUC(0-inf) was found to be 4750 ng·h/mL, the AUC(0-t) was found to be 4710 ng·h/mL, the peak level (Cmax) was 4990 ng/mL and the Tmax is 0.083 h. In the series “in vivo” (iv, 1 mg/kg), this compound gave a Vd of 0.416 L/kg, a clearance of 3.55 mL/min/kg and a half-life of 3.85 h. For the same compound, in the series “in vivo” (po, 5 mg/kg), the AUC(0-inf) came out at 15400 ng·h/mL, the AUC(0-t) was 15300 ng·h/mL, the concentration peaked (Cmax) at 3280 ng/mL and the Tmax worked out at 2 h. This compound also had a half-life in “in vivo” (po, 5 mg/kg) of 3.59 h.
In the series on virus H1N1 A/Weiss/43, `O=C(O)C1C2CCC(CC2)C1Nc1cc(-c2cc3ccccc3o2)nc(-c2c[nH]c3ncc(F)cc23)n1` (racemic) [Example 16, (+/−)-trans-3-((6-(benzofuran-2-yl)-2-(5-fluoro-1H-pyrrolo[2,3-b]pyridin-3-yl)pyrimidin-4-yl)amino)bicyclo[2.2.2]octane-2-carboxylic Acid] showed an EC50 of 0.54 nM. This lies in the sub-nanomolar range.
The compound `O=C(O)[C@H]1C2CCC(CC2)[C@@H]1Nc1cc(-c2ccco2)nc(-c2c[nH]c3nc(F)ccc23)n1` [Example 73, (2S,3S)-3-((2-(6-fluoro-1H-pyrrolo[2,3-b]pyridin-3-yl)-6-(furan-2-yl)pyrimidin-4-yl)amino)bicyclo[2.2.2]octane-2-carboxylic Acid] displayed a F in series [1] of 42.6%. In “in vivo” (iv, 1 mg/kg), the AUC(0-inf) was determined as 24800 ng·h/mL, the AUC(0-t) is 24200 ng·h/mL, the Cmax turned out to be 14800 ng/mL and the Tmax came to 0.083 h. In “in vivo” (iv, 1 mg/kg), this compound showed a Vd of 0.212 L/kg, a clearance of 0.681 mL/min/kg and a half-life of 1.41 h. In addition, in the series “in vivo” (po, 5 mg/kg), the AUC(0-inf) stood at 52800 ng·h/mL, the AUC(0-t) came out at 50600 ng·h/mL, the Cmax stood at 9300 ng/mL and the Tmax was found to be 1.5 h. The compound further showed a half-life in the series “in vivo” (po, 5 mg/kg) of 5.58 h.
On to `CC(C)(C)[C@@H](CC(=O)O)Nc1nc(-c2c[nH]c3ncc(F)cc23)nc(-c2ccco2)c1F` [Example 61, (R)-3-((5-fluoro-2-(5-fluoro-1H-pyrrolo[2,3-b]pyridin-3-yl)-6-(furan-2-yl)pyrimidin-4-yl)amino)-4,4-dimethylpentanoic Acid], for which the F in series [1] is listed as 53.1%. Further, in the series “in vivo” (iv, 1 mg/kg), the AUC(0-inf) stood at 4050 ng·h/mL, the AUC(0-t) was found to be 4030 ng·h/mL, the peak level (Cmax) was 8540 ng/mL and the Tmax is 0.083 h. Moreover, in the series “in vivo” (iv, 1 mg/kg), the distribution volume (Vd) was found to be 0.585 L/kg, the clearance was determined as 4.17 mL/min/kg and the half-life is 0.542 h. For the same compound, in “in vivo” (po, 5 mg/kg), the AUC(0-inf) was 10700 ng·h/mL, the AUC(0-t) was 10400 ng·h/mL, the concentration peaked (Cmax) at 2710 ng/mL and the Tmax is 1.5 h. This compound also had a half-life in “in vivo” (po, 5 mg/kg) of 5.95 h.
For the compound `O=C(O)C1C2CCC(CC2)C1Nc1nc(-c2c[nH]c3ncc(F)cc23)nc(-c2cc3ccccc3s2)c1F` (racemic) [Example 55, (+/−)-trans-3-((6-(benzo[b]thiophen-2-yl)-5-fluoro-2-(5-fluoro-1H-pyrrolo [2,3-b]pyridin-3-yl)pyrimidin-4-yl)amino)bicyclo[2.2.2]octane-2-carboxylic Acid], in the series with virus H1N1 A/Weiss/43, the EC50 came out at 0.874 nM.
In the series with virus H1N1 A/Weiss/43, `O=C(O)C1C2CCC(CC2)C1Nc1cc(-c2cccs2)nc(-c2c[nH]c3ncc(F)cc23)n1` (racemic) [Example 23, (+/−)-trans-3-((2-(5-fluoro-1H-pyrrolo[2,3-b]pyridin-3-yl)-6-(thiophen-2-yl)pyrimidin-4-yl)amino)bicyclo[2.2.2]octane-2-carboxylic Acid] came in with an EC50 of 0.104 nM.
